This note sets out measurements from US20260216164A1, “INDOLE COMPOUND DECOMPOSING IKZF2, AND USE THEREOF” (KOREA RESEARCH INSTITUTE OF CHEMICAL TECHNOLOGY, priority 2023, published 2026).

Structures are written as SMILES. Where two headings read alike, the source gives them in different places. Where only a bound is given, the exact number is not on record here.

What all share (format): cell-based
The target in experiment [1] is Helios (IKZF2) (Homo sapiens, UniProt Q96SW2+Q9UKS7). As to the kind of experiment: Screening of Helios protein degraders using Nano-Glo HiBiT cell line (HiBiT-IKZF2). As to conditions: 6 hours, HiBiT-Helios knock-in Jurkat cells; for remaining activity at 1 µM: compound 1 μM, read-out: HiBiT-IKZF2 Residual amount of Helios (%) 1 μM; for remaining activity at 10 µM: compound 10 μM, read-out: HiBiT-IKZF2 Residual amount of Helios (%) 10 μM.

Experiment [2] has as its target IKZF2 (Helios) (Homo sapiens, UniProt Q96SW2+Q9UKS7). Put plainly: Screening of DC50 (nM) and Dmax (%) using WB-IKZF2 cell line (Western blot). As to conditions: 6 hours; for DC50: read-out: WB-IKZF2 DC 50. Set-up: endogenous in cells. The procedure: Experimental Example 2. Screening of DC50 (nM) and Dmax (%) Using WB-IKZF2 Cell Line
Candidate degraders were serially diluted and treated in cells cultured in complete medium, followed by incubation for 6 hours at 37° C. in a CO2 incubator. After 6 hours, the cells were harvested and lysed in RIPA buffer (150 mM NaCl, 1% Triton X-100, 1% sodium deoxycholate, 0.1% SDS, 50 mM Tris-HCl pH 7.5, and 2 mM EDTA) containing a protease inhibitor cocktail (Roche). The mixture was vortexed every 10 minutes and incubated on ice for 30 minutes, followed by centrifugation at 13,000 rpm for 10 minutes at 4° C. to isolate proteins. The isolated proteins were quantified using the Bradford assay (Bio-Rad, 5000006). Proteins were separated on 8% SDS-polyacrylamide gel, transferred onto nitrocellulose membranes (Amersham, 10600002), and incubated with primary antibodies at 4° C. for 18 hours. The following primary antibodies were used: anti-Helios rabbit monoclonal antibody (Cell Signaling, 42427, 1:3000) and anti-β-actin mouse monoclonal antibody (Santa Cruz, sc-47778, 1:5000). β-actin was used as a loading control. The next day, the membranes were washed with 1×TBST for 30 minutes and incubated with HRP-conjugated secondary antibodies corresponding to the primary antibodies at room temperature for 1 hour. The following secondary antibodies were used: anti-mouse IgG HRP-linked antibody (Sigma, A9044, 1:5000) and anti-rabbit IgG HRP-linked antibody (Cell Signaling, 7074, 1:5000). After washing with 1×TBST for 30 minutes, protein expression was visualized using the Pierce ECL Western blotting substrate (Thermo Fisher, 32106), and images were captured using a chemiluminescence image analysis system (GE Healthcare, AI680). The obtained images were quantified using the ImageJ software.
On the technique in general: A western blot detects proteins with antibodies after separation by electrophoresis.

Experiment [3] deals with T1, Helios protein (Homo sapiens, UniProt Q96SW2+Q9UKS7).
T1 construct: endogenous in cells; host or cells: Jurkat cells
As to the kind of experiment: Measurement of Helios protein degradation using Western blot analysis in Jurkat cells (FIG. 1). As to conditions: 6 hours. Here is the method: To confirm the degradation of Helios protein by the degrader, Western blot analysis was performed. Jurkat cells (5×10^6) in complete medium were treated with serial dilutions of the compound at 37° C. in a CO2 incubator for 6 hours.
After harvesting the cells, they were lysed in RIPA buffer (LPS solution, CRB002) containing a protease inhibitor cocktail (Roche). The lysates were incubated on ice for 30 minutes with vortexing every 10 minutes, followed by centrifugation at 13,000 rpm for 10 minutes at 4° C. to isolate the cell lysates. The lysates were quantified using the Bradford assay (Bio-Rad, 5000006).
30 μg of the lysates were separated by 8% SDS-polyacrylamide gel electrophoresis (SDS-PAGE), and the proteins were transferred to a nitrocellulose (NC) membrane (Amersham, 10600002), followed by incubation with primary antibodies at 4° C. for 18 hours. […]
After washing with 1×TBST for 30 minutes, protein expression was visualized using Pierce ECL Western blotting substrate (Thermo Fisher, 32106), and the images were acquired using a chemiluminescence imaging system (GE Healthcare, AI680). The resulting images were quantified using ImageJ software. The results of Helios protein degradation measured with compound 39 of the present disclosure and comparative compound DKY709 are shown in FIG. 1.

The target in experiment [4] is IKZF2 over IKZF1, IKZF3, and IKZF4 (Homo sapiens, UniProt Q96SW2+Q9UKS7). Put plainly: Selective degradation of IKZF2 over IKZF1, IKZF3 and IKZF4.

Chain of IKZF2 (Helios) (Q9UKS7 whole entry): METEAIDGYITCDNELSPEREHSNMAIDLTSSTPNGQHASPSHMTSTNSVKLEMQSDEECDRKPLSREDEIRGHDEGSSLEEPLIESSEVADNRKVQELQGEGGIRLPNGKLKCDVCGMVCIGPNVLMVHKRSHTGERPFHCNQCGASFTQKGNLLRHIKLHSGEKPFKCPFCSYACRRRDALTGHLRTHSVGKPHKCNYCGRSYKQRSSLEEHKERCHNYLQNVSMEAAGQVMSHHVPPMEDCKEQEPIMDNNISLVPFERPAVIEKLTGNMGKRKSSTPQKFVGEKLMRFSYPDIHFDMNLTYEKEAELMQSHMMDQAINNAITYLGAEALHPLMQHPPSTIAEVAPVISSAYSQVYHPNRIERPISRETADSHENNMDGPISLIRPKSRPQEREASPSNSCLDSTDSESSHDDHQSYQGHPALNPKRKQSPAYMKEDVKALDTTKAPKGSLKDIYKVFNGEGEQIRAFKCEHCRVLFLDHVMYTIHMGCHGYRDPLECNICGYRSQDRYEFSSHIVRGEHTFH
Chain of IKZF2 (Helios) (Q96SW2 whole entry): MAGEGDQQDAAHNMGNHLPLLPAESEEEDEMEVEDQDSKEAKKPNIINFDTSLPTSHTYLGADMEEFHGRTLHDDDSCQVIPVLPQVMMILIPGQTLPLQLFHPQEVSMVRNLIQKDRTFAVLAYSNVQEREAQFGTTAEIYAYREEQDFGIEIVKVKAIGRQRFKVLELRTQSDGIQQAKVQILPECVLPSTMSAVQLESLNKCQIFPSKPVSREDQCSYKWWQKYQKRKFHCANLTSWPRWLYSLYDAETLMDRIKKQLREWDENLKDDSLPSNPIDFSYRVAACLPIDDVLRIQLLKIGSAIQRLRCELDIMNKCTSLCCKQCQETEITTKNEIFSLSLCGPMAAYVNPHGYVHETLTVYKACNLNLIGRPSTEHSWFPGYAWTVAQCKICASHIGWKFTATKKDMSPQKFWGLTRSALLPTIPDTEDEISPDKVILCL
Chain of IKZF2 (Helios) (Q16531 whole entry partner): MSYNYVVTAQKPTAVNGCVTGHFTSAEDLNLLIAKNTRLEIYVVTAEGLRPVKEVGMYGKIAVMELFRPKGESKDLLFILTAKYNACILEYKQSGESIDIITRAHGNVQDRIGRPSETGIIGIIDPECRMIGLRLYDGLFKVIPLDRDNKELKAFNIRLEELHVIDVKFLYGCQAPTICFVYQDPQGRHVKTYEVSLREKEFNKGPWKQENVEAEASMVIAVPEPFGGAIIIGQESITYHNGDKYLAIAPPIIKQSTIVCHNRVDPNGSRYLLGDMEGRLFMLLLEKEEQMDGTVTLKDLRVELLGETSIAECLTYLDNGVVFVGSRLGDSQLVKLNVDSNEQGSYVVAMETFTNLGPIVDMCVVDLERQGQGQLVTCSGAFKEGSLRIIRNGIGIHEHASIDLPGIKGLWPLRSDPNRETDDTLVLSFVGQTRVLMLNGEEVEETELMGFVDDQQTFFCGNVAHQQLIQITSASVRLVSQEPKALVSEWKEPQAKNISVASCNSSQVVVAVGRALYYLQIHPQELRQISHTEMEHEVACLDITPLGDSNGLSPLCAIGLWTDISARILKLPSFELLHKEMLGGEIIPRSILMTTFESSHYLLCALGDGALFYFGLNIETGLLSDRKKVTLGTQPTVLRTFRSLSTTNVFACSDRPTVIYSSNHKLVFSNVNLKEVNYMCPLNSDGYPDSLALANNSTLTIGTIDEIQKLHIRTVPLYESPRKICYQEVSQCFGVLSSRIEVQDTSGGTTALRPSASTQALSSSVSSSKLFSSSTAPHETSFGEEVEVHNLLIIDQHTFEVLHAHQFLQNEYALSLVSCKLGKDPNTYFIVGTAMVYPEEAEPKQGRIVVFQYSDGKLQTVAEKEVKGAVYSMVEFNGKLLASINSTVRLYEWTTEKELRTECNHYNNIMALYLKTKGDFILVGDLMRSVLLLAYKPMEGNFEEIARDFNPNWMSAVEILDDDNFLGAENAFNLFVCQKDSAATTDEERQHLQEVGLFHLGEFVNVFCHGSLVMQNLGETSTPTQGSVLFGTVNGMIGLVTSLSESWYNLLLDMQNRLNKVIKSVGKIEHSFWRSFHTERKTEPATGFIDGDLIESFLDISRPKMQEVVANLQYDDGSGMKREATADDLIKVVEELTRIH
Chain of Helios (IKZF2) (Q9UKS7 whole entry): as the sequence (Q9UKS7 whole entry) above
Chain of Helios (IKZF2) (Q96SW2 whole entry): as the sequence (Q96SW2 whole entry) above
Chain of Helios (IKZF2) (Q16531 whole entry partner): as the sequence (Q16531 whole entry partner) above
T1 sequence (Q9UKS7 whole entry): as the sequence (Q9UKS7 whole entry) above
T1 sequence (Q96SW2 whole entry): as the sequence (Q96SW2 whole entry) above
T1 sequence (Q16531 whole entry partner): as the sequence (Q16531 whole entry partner) above

Consider `Cc1c(C(=O)N2CCC(c3ccc4c(c3)CN(C3CCC(=O)NC3=O)C4=O)CC2)[nH]c2cc(Cl)ccc12` (centres unmarked) [Compound 39, 3-(5-(1-(6-chloro-3-methyl-1H-indole-2-carbonyl)piperidin-4-yl)-1-oxoinsoindolin-2-yl)piperidine-2,6-dione], for which, in experiment [1], the remaining activity at 1 µM turned out to be 6.6% and the remaining activity at 10 µM was found to be 5.5%. This compound also returned a Dmax in experiment [2] of 100%. In addition, in experiment [2] (numeric value), the DC50 turned out to be 0.19 nM. Also, the “Helios protein degradation activity compared to comparative compound 1 (DKY709)” value in experiment [3] is listed as “more than 1,000 fold”.

As to `O=C1CCC(N2Cc3cc(C4CCN(C(=O)c5[nH]c6cc(Cl)ccc6c5CN5CCOCC5)CC4)ccc3C2=O)C(=O)N1` (centres unmarked) [Compound 82, 3-(5-(1-(6-chloro-3-(morpholinomethyl)-1H-indole-2-carbonyl)piperidin-4-yl)-1-oxoinsoindolin-2-yl)piperidine-2,6-dione], the remaining activity at 10 µM in experiment [1] worked out at 7.4%. For the same compound, in experiment [2] (class symbols), the DC50 lay within 10 to 100 nM. Moreover, the “selective degradation activity for IKZF2 over IKZF1, IKZF3, and IKZF4” value in experiment [4] is “selective degradation activity for IKZF2 over IKZF1, IKZF3, and IKZF4”.

In the case of `Cc1c(C(=O)N2CCC(c3cc4c(cc3F)C(=O)N(C3CCC(=O)NC3=O)C4)CC2)[nH]c2cc(Cl)c(F)cc12` (centres unmarked) [Compound 112, 3-(5-(1-(6-chloro-5-fluoro-3-methyl-1H-indole-2-carbonyl)piperidin-4-yl)-6-fluoro-1-oxoinsoindolin-2-yl)piperidine-2,6-dione], in experiment [1], the remaining activity at 1 µM is 23%. Moreover, the Dmax in experiment [2] came to 98%. Also, the DC50 in experiment [2] (class symbols) was in the range of 10 to 100 nM.

Regarding `Cc1c(C(=O)N2CCC(c3ccc4c(c3F)CN(C3CCC(=O)NC3=O)C4=O)CC2)[nH]c2cc(Cl)c(F)cc12` (centres unmarked) [Compound 113, 3-(5-(1-(6-chloro-5-fluoro-3-methyl-1H-indole-2-carbonyl)piperidin-4-yl)-4-fluoro-1-oxoinsoindolin-2-yl)piperidine-2,6-dione], in experiment [1], the remaining activity at 1 µM came out at 14.1%. This compound yielded a Dmax in experiment [2] of 96%. In experiment [2] (class symbols), the DC50 is under 10 nM.

As for `Cc1c(C(=O)N2CCC(c3ccc4c(c3F)CN(C3CCC(=O)NC3=O)C4=O)CC2)[nH]c2cc(Cl)c(O)cc12` (centres unmarked) [Compound 115, 3-(5-(1-(6-chloro-5-hydroxy-3-methyl-1H-indole-2-carbonyl)piperidin-4-yl)-4-fluoro-1-oxoinsoindolin-2-yl)piperidine-2,6-dione], the remaining activity at 1 µM in experiment [1] was 34.6%. In experiment [2], this compound had a Dmax of 100%. Moreover, the DC50 in experiment [2] (class symbols) was under 10 nM.
